The values that follow come from patent publication US20230391765A1, “HETEROBIFUNCTIONAL COMPOUNDS AS DEGRADERS OF ENL” (ICAHN SCHOOL OF MEDICINE AT MOUNT SINAI, priority 2020, published 2023).

Holding throughout (type): cell-based
Assay [1] deals with T1, ENL (Homo sapiens, UniProt Q03111).
T1 construct: Cells were lysed and expression of endogenous ENL was assessed by Western blot analysis; host or cells: MV4;11
T1 sequence (Q03111 1-559): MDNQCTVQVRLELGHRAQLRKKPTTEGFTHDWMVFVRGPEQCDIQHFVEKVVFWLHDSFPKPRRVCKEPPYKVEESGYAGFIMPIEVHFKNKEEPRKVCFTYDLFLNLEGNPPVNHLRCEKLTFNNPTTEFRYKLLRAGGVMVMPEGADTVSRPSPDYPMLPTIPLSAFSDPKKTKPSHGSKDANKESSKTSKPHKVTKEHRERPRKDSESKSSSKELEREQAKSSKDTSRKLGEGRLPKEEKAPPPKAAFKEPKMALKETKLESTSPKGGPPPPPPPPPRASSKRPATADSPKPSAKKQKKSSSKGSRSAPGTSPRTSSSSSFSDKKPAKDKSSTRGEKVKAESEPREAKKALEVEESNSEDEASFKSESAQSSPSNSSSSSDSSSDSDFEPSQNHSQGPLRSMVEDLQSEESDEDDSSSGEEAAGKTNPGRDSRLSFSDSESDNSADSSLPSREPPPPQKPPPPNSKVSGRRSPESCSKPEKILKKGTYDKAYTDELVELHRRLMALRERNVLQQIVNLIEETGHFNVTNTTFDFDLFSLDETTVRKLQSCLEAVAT
Kind of assay: Western blot of ENL protein levels in MV4; 11 cells. As to conditions: 11 cells; for ENL protein level after long treatment: 1 μM for 48 and 72 h. As for the experimental part: MV4; 11 cells were treated with DMSO or the indicated compounds (the same panel of ENL degraders as shown in FIG. 4) at 1 μM and 10 μM for 24 h. Cells were lysed and expression of ENL was assessed by Western blot analysis.
DMSO treated cells were used as control.
MV4; 11 cells were treated with LQ076-122, or LQ081-107 at 0.3, 1, 3, 10, and 30 μM for 24 h. DMSO treated cells were used as control. Cells were lysed and expression of ENL and GAS41 was assessed by Western analysis.
MV4; 11 cells were treated with DMSO or the indicated compounds at 1 μM and 10 μM for 6 h. Cells were lysed and expression of endogenous ENL was assessed by Western blot analysis.
Cells were treated with 1 μM of ENL degrader with or without 1 μM proteasome inhibitor MG132 for 6 h.
(§1) ENL degraders were dissolved in DMSO. DMSO with no degraders was used as the control. 1×10^6 leukemia cells were seeded in 5 mL medium. For prescreening of compounds, each test compound was added to the medium at 1 μM and 10 μM. Cells were collected after 24 h treatment. For the concentration-dependent treatment, candidate compounds were added to the medium at a series of concentration as indicated in figures. Cells were collected after 24 h treatment. For the time-course treatment, candidate compounds were added to the medium at a final concentration of 4 μM (MV4; 11 cells) or 8 μM (MOLM13 cells). Cells were collected at the indicated timepoints (in hours: 12, 16, 20, 24 and 36 h).
(§2) After ENL degrader treatment, cells were collected, lysed, and total cell lysates were used for Western blot. The following primary antibodies were used: ENL (Cell Signaling Technology), GAS41 (Santa Cruz), GAPDH (Santa Cruz), β-actin (Sigma). Blots were detected using HRP-conjugated secondary antibodies.
In general terms: Immunoblotting shows a protein as a band on a membrane.

Assay [2] concerns ENL-dependent MV4; 11 cells. The experiment in a line: Cell viability (CellTiter-Glo), MV4; 11 cells. Here is the method:
(§3) MV4; 11 (FIG. 13A), MOLM13 (FIG. 13B) and Jurkat (FIG. 13C) cells were seeded at 2×10^5 cells/mL density and treated with DMSO or indicated compounds 0.5, 1, 2 and 4 μM for 72 h. Cell viability was measured using CellTiter-Glo reagent (Promega) and relative cell viability was calculated by normalization to DMSO samples.
ENL-dependent MV4; 11 cells were seeded at 2×10^5 cells/mL density and treated with DMSO or the indicated compounds at 0, 1.25, 2.5, 5 and 10 μM for 72 h. Cell viability was measured using CellTiter-Glo reagent (Promega) and relative cell viability was calculated by normalization to DMSO samples.
ENL-dependent MV4; 11 and ENL-independent Jurkat cells were seeded at 2×10^5 cells/mL density and treated with DMSO or indicated compounds at 10 nM, 100 nM, 1 μM and 10 μM for 3 days (A) or 6 days (B). Cell viability was measured using CellTiter-Glo reagent (Promega) and relative cell viability was calculated by normalization to DMSO samples.
(§4) MV4; 11 or MOLM13 cells were seeded at 0.2×10^6 cells/mL density. Cells were treated with DMSO or ENL degraders at indicated concentrations. Each treatment was done in triplicates. After 72 h treatment, 100 μL of cell suspension from each treatment was mixed with 25 μL of CellTiter-Glo reagent (Promega) and incubated for 10 min before the luminescence signals were detected on a plate reader.
(ATP-based viability assays read luminescence as a measure of living cells.)

For assay [3], the system named is ENL-dependent MOLM13 leukemia cells. Kind of assay: Cell viability (CellTiter-Glo), MOLM13 cells. As to conditions: MOLM13 cells, 0.5, 1, 2 and 4 μM for 72 h. Here is the method: as §3, §4
The target in assay [4] is T1, ENL. The experiment in a line: Western blot of ENL protein levels in MOLM13 cells. Particulars: for reduction of ENL protein levels: 1 nM to 10 μM for 6 h; for ENL protein level after long treatment: 1 μM for 48 and 72 h. Here is the method: MOLM13 cells were treated with LQ076-122 or LQ081-108 at 0, 0.25, 0.5, 1, 1.5, 2, 2.5, 3, 4 and 8 μM for 24 h.
MOLM13 cells were treated with DMSO or 8 μM of LQ076-122 for 12, 16, 20, 24 and 36 h.
MV4; 11, MOLM13 and Jurkat cells were treated with LQ108-69, LQ108-71, LQ108-72, LQ126-62 and LQ126-63 at 0, 1 nM, 10 nM, 100 nM, 1 μM, and 10 μM doses for 6 h. DMSO was used as negative control.
as §1, §2

Assay [5] deals with T1, ENL. Kind of assay: Western blot of ENL protein levels in Jurkat cells. Particulars: for reduction of ENL protein levels: 1 nM to 10 μM for 6 h; for ENL protein level after long treatment: 1 μM for 48 and 72 h.
Excerpt: […] DMSO was used as negative control.
as §2

The mark [6] stands for this setting: 11 cells, 1.25, 2.5, 5 and 10 μM for 72 h.

Consider `Cc1ncsc1-c1ccc([C@H](C)NC(=O)[C@@H]2C[C@@H](O)CN2C(=O)[C@@H](NC(=O)CCCCCCCCCCCNC(=O)c2ccc(C(=O)Nc3ccc4[nH]c(CN5CCC[C@@H]5C)nc4c3)cc2)C(C)(C)C)cc1` [LQ081-109, N^1-(12-(((S)-1-((2S,4R)-4-hydroxy-2-(((S)-1-(4-(4-methylthiazol-5-yl)phenyl)ethyl)carbamoyl)pyrrolidin-1-yl)-3,3-dimethyl-1-oxobutan-2-yl)amino)-12-oxododecyl)-N^4-(2-(((S)-2-methylpyrrolidin-1-yl)methyl)-1H-benzo[d]imidazol-5-yl)terephthalamide], for which the “reduction of ENL protein levels” value at ENL [1] (0-8 μM for 24 h) is listed as “reduced ENL protein levels in a concentration-dependent manner”; at ENL [1] (10 μM, 24 h) it was “effective in reducing ENL protein levels”. Also, the “suppression of cell growth (relative cell viability)” value in assay [2] (11 cells, 0.5, 1, 2 and 4 μM for 72 h) is on record as “selectively suppressed cell growth”; in assay [3], “selectively suppressed cell growth”.
As to `Cc1ncsc1-c1ccc([C@H](CC(=O)NCCCCCCNC(=O)c2ccc3c(c2)[C@H](NC(=O)c2cc(-c4ccc(C(=O)N(C)C)c(O)c4)on2)CC3)NC(=O)[C@@H]2C[C@@H](O)CN2C(=O)[C@@H](NC(=O)C2(F)CC2)C(C)(C)C)cc1` [LQ108-69, 5-(4-(dimethylcarbamoyl)-3-hydroxyphenyl)-N—((R)-6-((6-((S)-3-((2S,4R)-1-((S)-2-(1-fluorocyclopropane-1-carboxamido)-3,3-dimethylbutanoyl)-4-hydroxypyrrolidine-2-carboxamido)-3-(4-(4-methylthiazol-5-yl)phenyl)propanamido)hexyl)carbamoyl)-2,3-dihydro-1H-inden-1-yl)isoxazole-3-carboxamide], the “reduction of ENL protein levels” value on ENL [1] (1 nM to 10 μM for 6 h), at ENL [4] and on ENL [5] was “reduced ENL protein levels in a concentration-dependent manner” throughout. On ENL [1] (1 μM degrader with or without 1 μM MG132 for 6 h), the “effect of proteasome inhibitor MG132 on the ENL degradation induced by the degrader” value is on record as “partially blocks the ENL degradation”. Besides, the “ENL protein level after long treatment” value on ENL [1], on ENL [4] and on ENL [5] was “maintained the ENL protein at low levels” each time. Moreover, the “suppression of cell growth (relative cell viability)” value in assay [2] (setting [6]) is listed as “significantly suppressed MV4; 11 cell growth at low micromolar concentration”.
For `Cc1ncsc1-c1ccc([C@H](CC(=O)NCCCCCCCCNC(=O)c2ccc3c(c2)[C@H](NC(=O)c2cc(-c4ccc(C(=O)N(C)C)c(O)c4)on2)CC3)NC(=O)[C@@H]2C[C@@H](O)CN2C(=O)[C@@H](NC(=O)C2(F)CC2)C(C)(C)C)cc1` [LQ108-71, 5-(4-(dimethylcarbamoyl)-3-hydroxyphenyl)-N—((R)-6-((8-((S)-3-((2S,4R)-1-((S)-2-(1-fluorocyclopropane-1-carboxamido)-3,3-dimethylbutanoyl)-4-hydroxypyrrolidine-2-carboxamido)-3-(4-(4-methylthiazol-5-yl)phenyl)propanamido)octyl)carbamoyl)-2,3-dihydro-1H-inden-1-yl)isoxazole-3-carboxamide], the “reduction of ENL protein levels” value at ENL [1] (1 nM to 10 μM for 6 h), on ENL [4] and on ENL [5] was “reduced ENL protein levels in a concentration-dependent manner” each time. Besides, the “ENL protein level after long treatment” value at ENL [1], on ENL [4] and at ENL [5] was “maintained the ENL protein at low levels” throughout. In addition, the “suppression of cell growth (relative cell viability)” value in assay [2] (setting [6]) is “significantly suppressed MV4; 11 cell growth at low micromolar concentration”.
`Cc1ncsc1-c1ccc([C@H](CC(=O)NCCCCCCCCCNC(=O)c2ccc3c(c2)[C@H](NC(=O)c2cc(-c4ccc(C(=O)N(C)C)c(O)c4)on2)CC3)NC(=O)[C@@H]2C[C@@H](O)CN2C(=O)[C@@H](NC(=O)C2(F)CC2)C(C)(C)C)cc1` [LQ108-72, 5-(4-(dimethylcarbamoyl)-3-hydroxyphenyl)-N—((R)-6-((9-((S)-3-((2S,4R)-1-((S)-2-(1-fluorocyclopropane-1-carboxamido)-3,3-dimethylbutanoyl)-4-hydroxypyrrolidine-2-carboxamido)-3-(4-(4-methylthiazol-5-yl)phenyl)propanamido)nonyl)carbamoyl)-2,3-dihydro-1H-inden-1-yl)isoxazole-3-carboxamide]: the “reduction of ENL protein levels” value on ENL [1] (1 nM to 10 μM for 6 h), at ENL [4] and at ENL [5] was “reduced ENL protein levels in a concentration-dependent manner” each time. In addition, the “ENL protein level after long treatment” value on ENL [1], on ENL [4] and on ENL [5] was “maintained the ENL protein at low levels” in each case. Besides, the “suppression of cell growth (relative cell viability)” value in assay [2] (setting [6]) was “significantly suppressed MV4; 11 cell growth at low micromolar concentration”.
